The source of these data is patent publication US4672063A, “Antiallergic 5-alkyl-1-phenyl-2-piperazinoalkylpyrazolin-3-one compounds” (Kali-Chemie Pharma GmbH, priority 1984, dated 1987).

The subject of data set [1] is carrageenin edema of the paw. Put plainly: Inhibition of carrageenin paw edema in the rat. It is filed as in vivo, rat (Wistar). As to conditions: po, 100 mg/kg p.o., 3 hours after irritant, read-out: % Inhibition of carageenin paw edema in the rat. The protocol:
Description of the test method to determine the inhibiting effect on the carrageenin edema of the paw in the rats according to the method of Winter et al (Proc. Soc. Exp. Biol. Med. 111 (1962) 544-547).
Male Wistar rates with a body weight of approximately 120 to 140 g are used. A dose of 100 mg/kg of the test substance suspended in a volume of 0.5 ml per 100 g body weight of a 1% methyl cellulose solution Tylose®, American Hoechst Corp., Somerville, NJ) is administered per os.
Only the Tylose® solution is administered to a control group. One hour later, to initiate the inflammation, 0.1 ml of a 1% suspension of carageenin (Satiagum® E) in an isotonic solution of sodium chloride are administered as an irritant by intraplantar injection into the right rear paw. An identical volume of isotonic sodium chloride solution is injected into the left rear paw. Both before and also 3 hours after the administration of the irritant, the volume of the individual rat paws is measured plethysmometrically and the volume of swelling of the paw after administration of carrageenin is determined compared with the paw which was only treated with sodium chloride solution. The inhibition of edema formation brought about by the test substances in the treated animals is indicated in percentage compared with the animals of the untreated control group.
In general terms: The carrageenan paw model is a standard test of acute inflammation.

For data set [2], the system named is passive cutaneous anaphylaxis. The experiment in a line: Inhibition of passive cutaneous anaphylaxis (PCA) in the rat, test substance p.o. Particulars: po, 50% reduction in dye concentration vs control, read-out: ED50 inhibiting effect, passive cutaneous anaphylaxy. The format is in vivo, rat (Sprague-Dawley). The protocol:
(§1) 2. Determining the inhibition of passive cutaneous anaphylaxis (PCA) and the inhibition of anaphylactoid cutaneous reactions induced by histamine and by serotonin.
For the preparation of an antiovalbumin serum, rich in IgE, which is used in the test, according to the method of Lehrer et al (J. Immunol. 116, (1976) 178-182) and Pauwels et al (Ann. Immunol. 230C., (1979), 49-58), Sprague-Dawley rats are sensitized by i.p. injection of 1 mg ovalbumin and 1 ml Bordetella pertussis suspension (vaxicoq, Merieux 3×10^10 organisms/ml). After 20 days the animals are given an injection of 10 mg ovalbumin in the same way, but without any additive. After a further 4 days, blood is removed from the animals and the blood is centrifuged. The antiserum thus obtained is stored at -20° C. and adjusted according to the method of Goose et al (Immunology 16 (1968) 749-760).
(§2) The determination of the inhibition of passive cutaneous anaphylaxis and the anaphylactoid cutaneous reactions induced by histamine and by serotonin, are carried out, as set forth below, according to the method of Martin and Baggiolini (Naunyn-Schmeiedeberg's Archives of Pharmacology 316 (1981) 186-189).
(§3) For passive sensitizing against ovalbumin, male Sprague-Dawley rates (body weight 150 to 165 g) are injected intradermally on a shaved part of the back with 0.05 ml of a 1:2.5 dilution of antiovalbumin serum, rich in IgE, in physiological sodium chloride solution.
(§4) 24 hours after the sensitizing, solutions of the test substances are administered orally to the rats. For comparison, a control group receives only the solvent.
(§5) Immediately thereafter 1.25 mg (-~8 mg/kg) ovalbumin to trigger the anaphylactic reaction, and 4 mg (-~26.4 mg/kg) of a blue dye dissolved in 0.5 ml phosphate-buffered physiological sodium chloride solution are administered i.v. to the animals.
(§6) After 30 minutes the animals are killed, the skin is removed and in the individual blue patches the quantity of dye contained therein is determined separately. According to the method of Mordelet-Danbrine et al (Therapie 29 (1974) 851-862) the dye is extracted from the individual patches in each case with 2.5 ml dimethylformamide at a temperature of 37° C. for 4 days and the quantity of dye obtained in each case in the extraction solution is determined by spectrophotometric measurement. The doses of the test substances which cause a 50% reduction in the dye concentration compared with the control group are calculated as ED50 values.

Data set [3] concerns histamine-induced anaphylactoidal reaction. The experiment in a line: Inhibition of histamine-induced anaphylactoid cutaneous reaction in the rat, test substance p.o. The format is in vivo, rat (Sprague-Dawley). As to conditions: po, 40 μg histamine intradermally, read-out: ED50 inhibiting effect, histamine-induced anaphylactoidal reaction. The protocol: as §1, §2, §3, §4
(§7) To trigger the histamine-induced and serotonin-induced anaphylactoid reactions of the skin, the animals are injected intradermally 30 minutes later on a second shaved part of the back with a solution of 40 μg histamine in 0.05 ml physiological sodium chloride solution and on a third shaved part of the back with a solution of 1 μg serotonin in 0.05 physiological sodium chloride solution.
as §5, §6

Data set [4] deals with serotonin induced anaphylactoidal reaction. The experiment in a line: Inhibition of serotonin-induced anaphylactoid cutaneous reaction in the rat, test substance p.o. Particulars: po, 1 μg serotonin intradermally, read-out: ED50 inhibiting effect, serotonin induced anaphylactoidal reaction. The format is in vivo, rat (Sprague-Dawley). Here is the method:
as §1, §2, §3, §4, §7, §5, §6

In data set [5] the test system is peritonal mast cells of rats. Put plainly: In vitro inhibition of anaphylactically caused histamine release from peritonal mast cells of rats. The format is cell-based, rat (Sprague-Dawley). As to conditions: Rattus norvegicus, Mast cell; ovalbumin trigger, 1 minute preincubation at 37° C.; read-out: EC50 in vitro inhibiting effect with respect to anaphylactically caused histamine release from mast cells of the rat. The protocol:
3. Determining the inhibiting effect in vitro on the release of histamine, caused anaphylactically, from peritonal mast cells of rats.
In order to obtain the peritonal mast cells, Sprague-Dawley rats are killed by inhalation of ether and immediately after cessation of breathing has occurred, 15 ml of a cold solution of 1 mg/ml human serum albumin in phosphate-buffered sodium chloride solution are injected into the abdominal cavity. The peritonal fluid is then removed and the mast cells are separated therefrom by centrifuging and are suspended in phosphate-buffered sodium chloride solution, whereafter the suspension is adjusted to a mast cell concentration of 5×10^5 per ml.
The mast cell suspension, divided up into samples each of 100 μl, is introduced into test-tubes and each sample, for passive sensitizing, is mixed with 100 μl of a 1:10 dilution of IgE-rich antiovalbumin serum in physiological sodium chloride solution (prepared according to the method described above) and is incubated for 30 minutes at a temperature of 37° C. (water bath). For the removal of unbonded IgE, the mast cells are then washed with 2 ml phosphate-buffered sodium chloride solution, centrifuged, and the supernatant fluid is discarded. Then the mast cells are incubated for 1 minute at 37° C. with 200 μl of a solution of the test substance in phosphate-buffered sodium chloride solution. A control group is only incubated with the same quantity of phosphate-buffered sodium chloride solution which is free of test substance.
After an incubation period of 3 minutes at 37° C., the reaction is stopped by rapid cooling in an ice bath. Then centrifuging takes place, the supernatant fluid is decanted and the histamine content therein is determined directly, without further extraction, spectrofluorimetrically according to the method of Shore (J. Pharmac. Exp. Ther. 127 (1959) 182-186).
For the extraction of the residual histamine still contained in the mast cells of the undecanted material, the latter is mixed with 2 ml phosphate-buffered sodium chloride solution and the suspension is heated in a boiling water bath. Then centrifuging takes place, the supernatant fluid is decanted and therein the residual histamine extracted from the mast cells is determined spectrofluorimetrically.
For each sample, the quantity of the released histamine is calculated as percentage proportion of the overall quantity of histamine (=total of released histamine and residual histamine retained in the mast cells).
The EC50 values are calculated to be those molar concentrations of the test substances in the respective test solutions which produce a 50% inhibition of the histamine release compared to the control group.

Data set [6] can be described thus: Acute 8-day toxicity, single i.p. application to male mice (LD50). Particulars: in vivo, ip, mouse i.p., 8 days. The protocol: The acute 8-day toxicity is determined after a single application i.p. to male mice (body weight 18 to 22 g). The mortality is noted for 8 days. The results are calculated as LD50 values, i.e. the dose which kills 50% of the animals.

For `CCCc1cc(=O)n(CCCN2CCN(c3ccc(F)cc3)CC2)n1-c1ccccc1` [Example 12], in data set [1], the inhibition in vivo at 100 mg/kg turned out to be 49.5%.
On the same count and under the same terms, in the case of `O=c1cc(C2CCCC2)n(-c2ccccc2)n1CCCN1CCN(c2ccc(F)cc2)CC1` [Example 63] it was 42.2%.
Broadly, the ED50 is the dose at which the effect has come halfway, by size or by number of responders. For orientation: EC50 means the concentration giving half of the maximal effect. On to `Cc1cc(=O)n(CCCN2CCN(c3ccc(F)cc3)CC2)n1-c1ccc(Cl)cc1` [Example 62], for which the ED50 in data set [2] is 5.47 mg/kg; in data set [3] it was 7.04 mg/kg; in data set [4], 3.64 mg/kg. The concentration for a half-maximal effect (EC50) in data set [5] came to 62 µM. The inhibition in vivo at 100 mg/kg in data set [1] stood at 63.9%.
On to `Cc1cc(=O)n(CCCN2CCN(c3ccc(F)cc3)CC2)n1-c1ccccc1` [Example 8], for which the inhibition in vivo at 100 mg/kg in data set [1] was 56.4%.
The term LD50 denotes the dose at which mortality reaches 50%. A high value points to a less toxic substance. On to `Cc1cc(=O)n(CCCN2CCN(c3ccc(F)cc3)CC2)n1-c1ccc([N+](=O)[O-])cc1` [Example 39], for which, in data set [6], the LD50 at 192 h stood at 91.5 mg/kg. For the same compound, the values for the 50% effective dose (ED50) in data set [2], in data set [3] and in data set [4] were 5.7 mg/kg, 9.7 mg/kg and 2.5 mg/kg, respectively. Besides, in data set [1], the inhibition in vivo at 100 mg/kg was 42.6%.
Compound `Cc1cc(=O)n(CCCN2CCN(c3ccc(F)cc3)CC2)n1-c1ccc(C#N)cc1` [Example 60] registered an LD50 at 192 h in data set [6] of 91.5 mg/kg. For the same compound, the median effective dose (ED50) is 1.86 mg/kg in data set [2], 3.32 mg/kg in data set [3] and 2.49 mg/kg in data set [4]. The concentration giving a half-maximal response (EC50) in data set [5] was found to be 200 µM. Besides, in data set [1], the inhibition in vivo at 100 mg/kg amounted to 62.4%.
For the compound `CCc1cc(=O)n(CCCN2CCN(c3ccc(F)cc3)CC2)n1-c1ccc([N+](=O)[O-])cc1` [Example 54], in data set [6], the median lethal dose (LD50) at 192 h turned out to be 53.3 mg/kg. Also, the ED50 was determined as 4.45 mg/kg in data set [2], 5.46 mg/kg in data set [3] and 0.52 mg/kg in data set [4]. The EC50 in data set [5] worked out at 120 µM. For the same compound, the inhibition in vivo at 100 mg/kg in data set [1] came to 45.6%.
With `CCc1cc(=O)n(CCCN2CCN(c3ccc(F)cc3)CC2)n1-c1ccccc1` [Example 1, 5-ethyl-1-phenyl-2-{3-[4-(4-fluorophenyl)-piperazin-1-yl]-propyl}-pyrazolin-3-one], the 50% lethal dose (LD50) at 192 h in data set [6] stood at 117 mg/kg. Moreover, the ED50 amounted to 2.5 mg/kg in data set [2], 4.7 mg/kg in data set [3] and 2.6 mg/kg in data set [4]. Besides, the EC50 in data set [5] was 50 µM. Besides, in data set [1], the inhibition in vivo at 100 mg/kg came to 52.8%.
For `CC(=O)c1ccc(-n2c(C)cc(=O)n2CCCN2CCN(c3ccc(F)cc3)CC2)cc1` [Example 59], in data set [1], the inhibition in vivo at 100 mg/kg came out at 45.7%.
With `CCc1cc(=O)n(CCCN2CCN(c3cc(C)ccn3)CC2)n1-c1ccc(Cl)cc1` [Example 23], the LD50 at 192 h in data set [6] was 168 mg/kg. Moreover, the ED50 in data set [2] is 7.85 mg/kg; in data set [3], 4.7 mg/kg; in data set [4] it was 5.8 mg/kg. The EC50 in data set [5] turned out to be 140 µM.
